Seven molecules from patent US8883963B2 (Cadila Healthcare Limited, priority 2007, dated 2014) can be followed below.

Assay type in all cases: cell-based
Assay [1] has as its system RIN5F (Rat Insulinoma) cells. Put plainly: In vitro glucose-dependent insulin secretion (RIN5F cell assay screening protocol). The following applies: 16.7 mM glucose load. The procedure:
RIN5F (Rat Insulinoma) cells were cultured in RPMI 1640 medium supplemented with sodium pyruvate (1 mM) HEPES and Glucose (4.5 g/L) in a humidified incubator (5% CO2), at 37° C. After trypsinization, RIN5F cells were seeded at a concentration of 0.2×10^6 cells per well, in 12 well plates.
The buffer was replaced after 40 min. and the cells were incubated (37° C.) with the test peptidomimetics, at different concentration, for 30 min., both in the presence (16.7 mM) and absence (0 mM) of glucose load. The supernatant was collected and the insulin amount was measured by ultra sensitive Rat insulin ELISA kit (Crystal Chem, IL). The protein was estimated in the supernatant using Bicinchoninic Acid kit, according to the manufacturer's protocol (Sigma Aldrich, MO). The total insulin content obtained in Pico-gram (pg) was divided with the total protein (μg) in order to normalize for differences in cell density between wells.

Another assay has as its target T1, Human GLP-1 receptor (Homo sapiens, UniProt P43220).
T1 construct: The full-length cDNA was cloned in pcDNA3.1(+); expressed in transfected cells
Put plainly: In vitro Human GLP-1 R agonist activity (cyclic AMP determination) in CHO/human GLP1R cells. How it is done:
The novel peptidomimetics were screened for Human GLP-1 receptor (HGLP-1 R) agonist activity (in vitro), using the cAMP cell-based assay, in stably transfected CHO/human GLP1R cells. […] CHO cells were grown in Ham's F12 medium containing L-Glutamine (2 mM), HEPES (25 mM), NaHCO3 (1.1 g/L) and supplemented with NewBorn Calf Serum (NBCS; 10%), Penicillin (50 U/ml (v/v)) and Streptomycin (50 ug/ml (v/v)). Cells were split every 3 days 1:8.
The cDNA encoding the human GLP-1 receptor was isolated by RT-PCR according to standard protocol. The full-length cDNA was cloned in pcDNA3.1(+). […] Clones expressing the receptor were generated by G418 (800 μg/ml active, Sigma) selection. The stable clones were thereafter maintained at 500 ug/ml (G418). The selected clone was used between passages 9-25 for cAMP assays.
The trypsin was inactivated using Ham's F12 medium containing 10% NBCS and the cells were suspended in 2 ml of complete medium. […] The medium was aspirated off from the 12 well plate and the cells were washed once using Ham's F12 (plain). […] The cells were incubated with the test compounds for 30 min in humidified atmosphere and 37° C. After the incubation, the medium was removed and cells were washed once with plain Ham's F12. Subsequently, the cells were lysed by adding 500 ul of ice cold 0.1 N HCl to each well and shaking for 30 minutes at 200 rpm. The cells were then scrapped, the lysate was collected in micro centrifuge tubes and centrifuged at 12000 rpm for 10 min to remove the debris. 300 ul of supernatant from each micro-centrifuge tube was then removed into a glass tube and dried under N2 for 30 min, for cAMP estimation. The total cAMP was estimated from the sample according to the manufacturer's protocol using Cyclic AMP immunoassay kit (R&D systems, Minneapolis. MN). The remaining supernatant is used to determine the protein concentration using micro BCA (Sigma). Data is calculated as percent of control (Vehicle: water) and expressed as Mean±SD.

The target of another assay is T2, human glucagon receptor (Homo sapiens, UniProt P47871).
T2 construct: The full-length cDNA was cloned in pcDNA3.1 (Invitrogen); expressed in transfected cells
T2 sequence (P47871 26-477): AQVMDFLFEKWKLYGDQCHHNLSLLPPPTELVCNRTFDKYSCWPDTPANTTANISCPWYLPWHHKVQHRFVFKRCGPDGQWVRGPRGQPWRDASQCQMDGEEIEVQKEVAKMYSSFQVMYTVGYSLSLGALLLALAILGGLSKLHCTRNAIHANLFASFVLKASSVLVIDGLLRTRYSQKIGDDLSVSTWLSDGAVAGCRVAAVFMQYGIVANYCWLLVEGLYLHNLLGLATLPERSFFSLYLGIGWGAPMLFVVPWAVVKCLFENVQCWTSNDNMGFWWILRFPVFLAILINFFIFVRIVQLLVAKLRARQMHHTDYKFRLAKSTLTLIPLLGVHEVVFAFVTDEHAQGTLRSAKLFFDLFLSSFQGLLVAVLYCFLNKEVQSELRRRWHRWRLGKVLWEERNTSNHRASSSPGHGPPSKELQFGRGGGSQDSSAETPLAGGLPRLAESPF
As to the kind of experiment: In vitro human glucagon antagonist activity (inhibition of cAMP production) in CHO/human glucagon R cells. The following applies: with saturated concentration of glucagon peptide. The procedure:
The CHO-K1 cells (CRL 9618) were obtained from American Type Culture Collection (Rockville, Md.). CHO cells were grown in Ham's F12 medium containing L-Glutamine (2 mM), HEPES (25 mM), NaHCO3 (1.1 g/L) and supplemented with newborn Calf Serum (NBCS; 10%), Penicillin (50 U/ml (v/v)) and Streptomycin (50 ug/ml (v/v)). Cells were split every 3 days 1:8.
The full-length cDNA was cloned in pcDNA3.1 (Invitrogen). […] Clones expressing the receptor were generated by G418 (800 μg/ml active, Sigma) selection. The stable clones were thereafter maintained at 500 ug/ml (G418). The selected clone was used between passages 9-25 for cAMP assays.
The cells were trypsinized using 2 ml of TPVG (0.25% trypsin, 0.53 mM EDTA, 1.38-mM glucose). The trypsin was inactivated using Ham's F12 medium containing 10% NBCS and the cells were suspended in 2 ml of complete medium. […] The medium was aspirated off from the 12 well plate and the cells were washed once using Ham's F12 (plain). The cells were incubated at 37° C. with 500 ul of Ham's F12+1% BSA+0.125 mM RO-20 for 30 min. […] After the incubation, the medium was removed and cells were washed once with plain Ham's F12. Subsequently, the cells were lysed by adding 500 ul of ice cold 0.1 N HCl to each well and shaking for 30 minutes at 200 rpm. The cells were then scrapped, the lysate was collected in micro centrifuge tubes and centrifuged at 12000 rpm for 10 min to remove the debris. 300 ul of supernatant from each micro-centrifuge tube was then removed into a glass tube and dried under N2 for 30 min, for cAMP estimation. The total cAMP was estimated from the sample according to the manufacturer's protocol using Cyclic AMP immunoassay kit (R&D systems, Minneapolis. MN). The remaining supernatant is used to determine the protein concentration using micro BCA (Sigma). Data is calculated as percent of control (Vehicle: water) and expressed as Mean+SD.

Non-standard residues stand in square brackets, D forms with d. Residues, ends and D or L forms follow the SMILES beside them. ξ: configuration not given here. *: point of attachment. X9 = CCc1cc(OC)ccc1-c1ccc(CC(NC(=S)[C@H](CC(=O)O)N*)C(=S)NC(CCCc2ccccc2F)C(N)=O)cc1; ξBip(2'-Et-4'-OMe) = CCc1cc(OC)ccc1-c1ccc(CC(N)C(=O)O)cc1; ξαMePhe(2-F) = CC(N)(Cc1ccccc1F)C(=O)O; aThr = C[C@H](O)[C@H](N)C(=O)O; ξhhPhe = NC(CCCc1ccccc1)C(=O)O; Aib = CC(C)(N)C(=O)O; Moc = COC(=O)*

T1 sequence (P43220 24-463): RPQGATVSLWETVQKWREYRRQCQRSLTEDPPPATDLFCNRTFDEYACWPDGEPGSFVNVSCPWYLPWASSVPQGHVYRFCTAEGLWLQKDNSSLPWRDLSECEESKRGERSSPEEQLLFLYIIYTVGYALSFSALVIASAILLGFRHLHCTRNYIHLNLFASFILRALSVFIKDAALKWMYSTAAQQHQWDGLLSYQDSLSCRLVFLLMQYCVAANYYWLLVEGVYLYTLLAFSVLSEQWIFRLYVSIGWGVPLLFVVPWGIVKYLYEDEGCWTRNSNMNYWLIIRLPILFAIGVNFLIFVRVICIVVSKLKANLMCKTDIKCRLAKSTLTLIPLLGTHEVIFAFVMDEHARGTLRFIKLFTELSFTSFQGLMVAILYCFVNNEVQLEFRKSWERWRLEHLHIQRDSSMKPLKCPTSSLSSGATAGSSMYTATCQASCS

Consider `CCc1cc(OC)ccc1-c1ccc(CC(NC(=O)[C@H](CC(=O)O)NC(=O)[C@H](CO)NC(=O)[C@@H](NC(=O)C(C)(Cc2ccccc2F)NC(=O)[C@@H](NC(=O)CNC(=O)[C@H](CCC(N)=O)NC(=O)C(C)(C)NC(=O)[C@@H](N)Cc2c[nH]cn2)[C@H](C)O)[C@H](C)O)C(=O)NC(CCCc2ccccc2)C(N)=O)cc1` (stereo partly drawn) [compound 113] (H-H[Aib]QG[aThr][ξαMePhe(2-F)][aThr]SD[ξBip(2'-Et-4'-OMe)][ξhhPhe]-NH2), for which the Insulin secretion came out at 15.6 ± 0.31 pg/µg/h in assay [1] (0.1 nM test compd.), 21.8 ± 0.16 pg/µg/h in assay [1] (1 nM test compd.) and 35.6 ± 0.28 pg/µg/h in assay [1] (10 nM test compd.).

Take `CCc1cc(OC)ccc1-c1ccc(CC(NC(=O)[C@H](CC(=O)O)NC(=O)[C@H](CO)NC(=O)[C@@H](NC(=O)C(C)(Cc2ccccc2F)NC(=O)[C@@H](NC(=O)CNC(=O)[C@H](CC(C(F)(F)F)C(F)(F)F)NC(=O)C(C)(C)NC(=O)[C@@H](N)Cc2c[nH]cn2)[C@H](C)O)[C@H](C)O)C(=O)NC(CCCc2ccccc2)C(N)=O)cc1` (single isomer, unassigned) [compound 228]: the “Human GLP-1 R activity (cAMP release), % activity with respect to control” value at Human GLP-1 receptor (1 nM test compound) turned out to be 99 ± 0.11%; at Human GLP-1 receptor (10 nM test compound), 99 ± 0.13%; on Human GLP-1 receptor (100 nM test compound), 99 ± 0.16%; on Human GLP-1 receptor (1 μM test compound), 99 ± 0.06%; at Human GLP-1 receptor (10 μM test compound), 99 ± 0.10%.

Take `CCc1cc(OC)ccc1-c1ccc(CC(CNC(CCCc2ccccc2F)C(N)=O)NC[C@H](CC(=O)O)NC(=O)[C@H](CO)NC(=O)[C@@H](NC(=O)C(C)(Cc2ccccc2F)NC(=O)[C@@H](NC(=O)CNC(=O)[C@H](CCC(N)=O)NC(=O)C(C)(C)NC(=O)[C@H](Cc2c[nH]cn2)NC(=O)OC)[C@@H](C)O)[C@@H](C)O)cc1` (single isomer, unassigned) [compound 196]: the “Human GLP-1 R activity (cAMP release), % activity with respect to control” value came out at 39 ± 0.10% at Human GLP-1 receptor (1 nM test compound); 81 ± 0.08% on Human GLP-1 receptor (10 nM test compound); 89 ± 0.09% on Human GLP-1 receptor (100 nM test compound); 96 ± 0.11% on Human GLP-1 receptor (1 μM test compound); 99 ± 0.16% at Human GLP-1 receptor (10 μM test compound).

As for `CCc1cc(OC)ccc1-c1ccc(CC(CNC(CCCc2ccccc2F)C(N)=O)NC(=O)[C@H](CC(=O)O)NC(=O)[C@H](CO)NC(=O)[C@@H](NC(=O)C(C)(Cc2ccccc2F)NC(=O)[C@@H](NC(=O)CNC(=O)[C@H](CCC(N)=O)NC(=O)C(C)(C)NC(=O)[C@H](Cc2c[nH]cn2)NC(=O)OC)[C@H](C)O)[C@H](C)O)cc1` (single isomer, unassigned) [compound 188], the “Human Glucagon receptor antagonistic activity shown as inhibition of cAMP production of Glucagon peptide” value at human glucagon receptor (1 nM test compound) worked out at 5 ± 0.04 pmol/ml/μg prt; on human glucagon receptor (10 nM test compound), 3 ± 0.15 pmol/ml/μg prt; on human glucagon receptor (100 nM test compound), 1 ± 0.15 pmol/ml/μg prt; at human glucagon receptor (1 μM test compound) it was 0 pmol/ml/μg prt; at human glucagon receptor (10 μM test compound), 0 pmol/ml/μg prt.

As for `CCc1cc(OC)ccc1-c1ccc(CC(NC(=O)[C@H](CC(=O)O)NC(=O)[C@H](CO)NC(=O)[C@@H](NC(=O)[C@H](Cc2ccccc2)NC(=O)[C@@H](NC(=O)CNC(=O)[C@H](CCC(N)=O)NC(=O)[C@H](CO)NC(=O)[C@@H](N)Cc2c[nH]cn2)[C@@H](C)O)[C@@H](C)O)C(=O)NC(CCCc2ccccc2)C(N)=O)cc1` (single isomer, unassigned) [compound 5], the “Human Glucagon receptor antagonistic activity shown as inhibition of cAMP production of Glucagon peptide” value is 6 ± 0.02 pmol/ml/μg prt on human glucagon receptor (1 nM test compound); 5 ± 0.04 pmol/ml/μg prt at human glucagon receptor (10 nM test compound); 3 ± 0.14 pmol/ml/μg prt at human glucagon receptor (100 nM test compound); 0 pmol/ml/μg prt on human glucagon receptor (1 μM test compound); 0 pmol/ml/μg prt on human glucagon receptor (10 μM test compound).

Regarding `CCc1cc(OC)ccc1-c1ccc(CC(NC(=S)[C@H](CC(=O)O)NC(=O)[C@H](CO)NC(=O)[C@@H](NC(=O)C(C)(Cc2ccccc2F)NC(=O)[C@@H](NC(=O)CNC(=O)[C@H](CCC(N)=O)NC(=O)C(C)(C)NC(=O)[C@H](Cc2c[nH]cn2)NC(=O)OC)[C@@H](C)O)[C@@H](C)O)C(=S)NC(CCCc2ccccc2)C(N)=O)cc1` (single isomer, unassigned) [compound 170], the “Human Glucagon receptor antagonistic activity shown as inhibition of cAMP production of Glucagon peptide” value at human glucagon receptor (1 nM test compound) is 6 ± 0.05 pmol/ml/μg prt; on human glucagon receptor (10 nM test compound), 5 ± 0.04 pmol/ml/μg prt; on human glucagon receptor (100 nM test compound) it was 2 ± 0.16 pmol/ml/μg prt; at human glucagon receptor (1 μM test compound) it was 0 pmol/ml/μg prt; on human glucagon receptor (10 μM test compound) it was 0 pmol/ml/μg prt.

Regarding `CCc1cc(OC)ccc1-c1ccc(CC(NC(=S)[C@H](CC(=O)O)NC(=O)[C@H](CO)NC(=O)[C@@H](NC(=O)C(C)(Cc2ccccc2F)NC(=O)[C@@H](NC(=O)CNC(=O)[C@H](CCC(N)=O)NC(=O)C(C)(C)NC(=O)[C@H](Cc2c[nH]cn2)NC(=O)OC)[C@@H](C)O)[C@@H](C)O)C(=S)NC(CCCc2ccccc2F)C(N)=O)cc1` (stereo partly drawn) [compound 172] (Moc-H[Aib]QGT[ξαMePhe(2-F)]TS-X9), the “Human Glucagon receptor antagonistic activity shown as inhibition of cAMP production of Glucagon peptide” value was found to be 4 ± 0.16 pmol/ml/μg prt on human glucagon receptor (1 nM test compound); 2 ± 0.11 pmol/ml/μg prt at human glucagon receptor (10 nM test compound); 0 pmol/ml/μg prt on human glucagon receptor (100 nM test compound); 0 pmol/ml/μg prt on human glucagon receptor (1 μM test compound); 0 pmol/ml/μg prt at human glucagon receptor (10 μM test compound).
